Measurements taken from patent US20060068455A1, “GABA detection methods and applications” (priority 2004, published 2006).

Test system: rat brain tissue
Test: Real-time fluorescence detection of Ca^2+-dependent GABA release from rat neural tissue on GABA-T/SSADH sensor
Assay type: cell-based
Procedure: Adult Sprague-Dawley rats about 160 grams each were injected with an overdose of Nembutal. The brains or spinal cords were removed and washed several times with PBS and then embedded with 5% low melting temperature agarose (NuSieve® GAG® agarose, FMC BioProducts, Me.). The embedded brains or spinal cords were cut with a Vibratome (VT10003, LEICA Microsystems, Germany) in 300 μm tissue sections. Each tissue section was placed on a GABA-T/SSADH fluorometric silica glass sensor and then GABA released from the tissue sections were measured with Fluoroskan Ascent (Labsystems, Finland).
The silica glass sensors of the present invention may be used to assay neural tissue and agents which affect neural tissue. […] Neural tissue, […], was cultured on GABA-T/SSADH sensors prepared inside tissue culture vessels. […] Therefore, GABA release is stimulated by Ca^2+.
The effect of various agents on GABA release in rat neural tissue were assayed in real-time with a GABA-T/SSADH sensor. The agents tested were 2-APB (a cell-permeable IP3 receptor antagonist), Thapsigargin (a blocker of store-specific Ca^2+-ATPase), Ryanodine and caffeine (increase internal Ca^2+ level), and KN-93 (CAM kinase II inhibitor).
FIGS. 10 and 11 show the effect of Thapsigargin and Ryanodine on Ca^2+-dependent GABA release, respectively. Therefore, the silica glass sensors of the present invention may be used for assaying the effect of various agents on cells and tissues cultured thereon.

SMILES | less GABA release (75 μM 2-APB without 10 mM CaCl2 compared with 75 μM 2-APB with 10 mM CaCl2, FIG. 9) | effect on Ca^2+-dependent GABA release (75 μM 2-APB, rat neural tissue, FIG. 9) | GABA release versus controls (100 mM Ca^2+, rat brain tissue, FIG. 8)
NCCOB(c1ccccc1)c1ccccc1 [2-APB] | about 41.9% | inhibits Ca^2+-dependent GABA release | 
[Ca+2].[Cl-].[Cl-] [Ca^2+] |  |  | released more GABA than controls
